target: human MGL from HeLa cells (Homo sapiens (Human), UniProt Q99685); assay: MGL in vitro activity assay ([glycerol-1,3-3H]-oleoyl glycerol hydrolysis, activated carbon filtration); type: biochemical; details: 300 nM [Glycerol-1,3-3H]-oleoyl glycerol, one hour
Procedure, shortened: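 Activity measured as tritium in the flow-through after activated carbon filtration of a 1 h reaction containing 300 nM 3H-oleoyl glycerol, compound and HeLa-derived human MGL. Compounds screened at 10 μM; IC50 series start at an empirically chosen highest concentration.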

human MGL from HeLa cells, sequence (Q99685 whole entry): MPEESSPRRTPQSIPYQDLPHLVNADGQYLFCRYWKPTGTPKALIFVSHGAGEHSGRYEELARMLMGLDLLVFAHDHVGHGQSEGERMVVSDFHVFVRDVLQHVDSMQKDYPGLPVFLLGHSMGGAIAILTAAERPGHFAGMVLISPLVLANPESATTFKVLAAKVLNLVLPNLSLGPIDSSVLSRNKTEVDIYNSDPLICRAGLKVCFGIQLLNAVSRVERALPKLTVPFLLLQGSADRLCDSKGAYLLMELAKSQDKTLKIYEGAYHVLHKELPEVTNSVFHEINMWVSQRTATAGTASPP

Row | Compound | IC50 [µM]
1 | C[C@]1(O)C[C@@H](C(=O)N2CC3(CCC(F)(c4ccccc4)CC3)C2)C1 [Example 340, (7-Fluoro-7-phenyl-2-azaspiro[3.5]nonan-2-yl)((1s,3s)-3-hydroxy-3-methylcyclobutyl)methanone] | 0.288
2 | Cn1cc(C(F)(F)F)c2ccc(CC3CC4(C3)CN(C(=O)[C@H]3C[C@@](C)(O)C3)C4)nc21 [Example 296, ((1s,3s)-3-Hydroxy-3-methylcyclobutyl)(6-((1-methyl-3-(trifluoromethyl)-1H-pyrrolo[2,3-b]pyridin-6-yl)methyl)-2-azaspiro[3.3]heptan-2-yl)methanone] | 0.00029
3 | C[C@]1(O)C[C@@H](C(=O)N2CC3(CCC(c4ccc5ccn(CC(F)(F)F)c5n4)CC3)C2)C1 [Example 387, ((1s,3s)-3-Hydroxy-3-methylcyclobutyl)(7-(1-(2,2,2-trifluoroethyl)-1H-pyrrolo[2,3-b]pyridin-6-yl)-2-azaspiro[3.5]nonan-2-yl)methanone] | 0.068
4 | Cc1ccc(CC2CC3(CCN(C(=O)[C@H]4C[C@@](C)(O)C4)CC3)C2)cc1 [Example 173, ((1s,3s)-3-Hydroxy-3-methylcyclobutyl)(2-(4-methylbenzyl)-7-azaspiro[3.5]nonan-7-yl)methanone] | 0.028
5 | C[C@]1(O)C[C@@H](C(=O)N2CC3(CC(Cn4c(C(F)(F)F)cc5cccnc54)C3)C2)C1 [Example 294, ((1s,3s)-3-Hydroxy-3-methylcyclobutyl)(6-((2-(trifluoromethyl)-1H-pyrrolo[2,3-b]pyridin-1-yl)methyl)-2-azaspiro[3.3]heptan-2-yl)methanone] | 0.01
6 | CC(C)c1cccc(C2CCC3(C2)CN(C(=O)[C@H]2C[C@](O)(C(F)F)C2)C3)c1 (mixture of isomers) [Example 319, (rac)-((1s,3s)-3-(Difluoromethyl)-3-hydroxycyclobutyl)(6-(3-isopropylphenyl)-2-azaspiro[3.4]octan-2-yl)methanone] | 0.038
7 | C[C@]1(O)C[C@@H](C(=O)N2CC3(CC(Cc4cccc(OC(F)F)c4)C3)C2)C1 [Example 157, (6-(3-(Difluoromethoxy)benzyl)-2-azaspiro[3.3]heptan-2-yl)((1s,3s)-3-hydroxy-3-methylcyclobutyl)methanone] | 0.029

The remaining lines, values ahead:

Row | IC50 [µM] | Compound
8 | 0.121 | COc1ccc(C2CCC3(CC2)CN(C(=O)[C@H]2C[C@@](C)(O)C2)C3)cc1C1CC1 [Example 142, (7-(3-Cyclopropyl-4-methoxyphenyl)-2-azaspiro[3.5]nonan-2-yl)((1s,3s)-3-hydroxy-3-methylcyclobutyl)methanone]
9 | 0.065 | COc1ccc(C2CCC3(CC2)CN(C(=O)[C@H]2C[C@@](C)(O)C2)C3)cc1C(F)(F)F [Example 114, ((1s,3s)-3-Hydroxy-3-methylcyclobutyl)(7-(4-methoxy-3-(trifluoromethyl)phenyl)-2-azaspiro[3.5]nonan-2-yl)methanone]
10 | 0.142 | COc1cc(OC2CCC3(CC2)CN(C(=O)[C@H]2C[C@@](C)(O)C2)C3)ncc1Cl [Example 460, (7-((5-Chloro-4-methoxypyridin-2-yl)oxy)-2-azaspiro[3.5]nonan-2-yl)((1s,3s)-3-hydroxy-3-methylcyclobutyl)methanone]
11 | 0.068 | COc1ccc(C2CCC3(CC2)CN(C(=O)[C@H]2C[C@@](C)(O)C2)C3)cc1C [Example 105, ((1s,3s)-3-Hydroxy-3-methylcyclobutyl)(7-(4-methoxy-3-methylphenyl)-2-azaspiro[3.5]nonan-2-yl)methanone]
12 | 0.004 | C[C@]1(O)C[C@@H](C(=O)N2CC3(CC[C@@H](c4cccc(C5CC5)c4F)C3)C2)C1 (stereo in doubt) [Example 25, ((*R)-6-(3-Cyclopropyl-2-fluorophenyl)-2-azaspiro[3.4]octan-2-yl)((1s,3*S)-3-hydroxy-3-methylcyclobutyl)methanone]
13 | 0.02 | Cc1cc(OC(F)(F)F)cc(C2CCC3(C2)CN(C(=O)[C@H]2C[C@@](C)(O)C2)C3)c1 (mixture of isomers) [Example 93, (rac)-((1s,3s)-3-Hydroxy-3-methylcyclobutyl)(6-(3-methyl-5-(trifluoromethoxy)phenyl)-2-azaspiro[3.4]octan-2-yl)methanone]

Reference: patent US11802111B2, “Cyclobutyl amide monoacylglycerol lipase modulators” (Janssen Pharmaceutica NV, priority 2020, dated 2023)
